Literature values in US6767915B2, “Substituted piperidines as melanocortin receptor agonists” (Merck & Co., Inc., priority 2000, dated 2004).

Columns and labels:
erectile dysfunction = conditions: for duration of effect / onset of action: after an oral dose; for share of men/patients with adequate response: oral
[1] = tested on: psychogenic erectile dysfunction
[2] = in vivo, po

Molecule | duration of effect (erectile dysfunction) | onset of action (erectile dysfunction) | share of men/patients with adequate response (erectile dysfunction) | response rate ([1]; injected intramuscularly or subcutaneously, males with psychogenic erectile dysfunction) | duration of action ([1]; subcutaneous injection) | time to onset of erection ([1]; subcutaneous injection) | absorption into the systemic circulation [2]
Cc1ccc(N(CC2=NCCN2)c2cccc(O)c2)cc1 [phentolamine] | 2 h | 5 to 30 min | 35-40% |  |  |  | 
CCCc1nn(C)c2c(=O)[nH]c(-c3cc(S(=O)(=O)N4CCN(C)CC4)ccc3OCC)nc12 [sildenafil] | about 4 hours | 30 to 60 min | about 70% |  |  |  | 
Ac-Nle-c[Asp-His-DPhe-Arg-Trp-Lys]-NH2 [MT-II] |  |  |  | 75% | approximately 2.5 hours | 10 to 20 min | not absorbed into the systemic circulation
